From paper PMC8839615 (Molecules, 2022)
Structures can show the parent of a compound that is named as a salt.

Experiments:
[1] = Pharmacokinetics study in rats after oral administration (plasma, LC-MS/MS); format: in vivo, Wistar rats; details: for CLZ / Cmax / VZ / half-life: mean ± SD, n = 6; for half-life: po
Protocol: The liquid chromatographic separation process was operated on an XR LC-20AD Prominence^TM UFLC system (Shimadzu, Japan). At a column temperature at 40 °C, substances were analyzed on an Atlantis T3 (2.1 × 150 mm, 3 μm) column. The mobile phase system was water with 0.1% formic acid (A) and methanol with 0.1% formic acid (B). A flow rate of 0.4 mL/min and sample injection volume of 5 μL were used for gradient elution. The gradient elution program was established as follows: 0.01–0.3 min, 5% B; 0.3–0.8 min, 5–50% B; 0.8–1.5 min, 50–70% B; 1.5–2.8 min, 70–85% B; 2.8–5.0 min, 85% B; 5.0–5.01 min, 85–5% B; and 5.01–7.0 min, 5% B.
Mass spectrometry quantitative analysis was conducted on a Q TRAP 4000 MS/MS system to collect data, and then analyst software (version 1.6, AB Sciex, Framingham, MA, USA) was used to handle data. In the MRM mode and taking nitrogen as the circulating gas, electrospray positive ionization (ESI+) was used to analyze four substances. The detailed MS parameters were established as follows: gas 1, 50 psi; gas 2, 40 psi; air curtain gas, 40 psi; ion spray voltage, 5500 V; ion source temperature, 500 °C. Declustering potential (DP), entrance potential (EP), collision energy (CE), and cell exit potential (CXP) were performed as parameters optimized for substances in the MRM mode.
(§1) The plasma and urine samples were kept at indoor temperature and dissolved before analysis. First, 100 µL of sample was added to a 1.5 mL Eppendorf tube together with 10 µL of ISs solution. Then, 300 µL of methanol:acetonitrile (1:1, v/v) was added, vortexed for 3 min, sonicated for 2 min in an ice-water bath, and centrifuged for 8 min at 16,000 rpm to deposit protein. The supernatant was transferred to a 1.5 mL Eppendorf tube, desiccated under airflow at room temperature, re-dissolved in 50 μL methanol, vortexed for 3 min, sonicated for 5 min in an ice-water bath, and centrifuged for 8 min at 16,000 rpm for LC-MS/MS analysis. For tissue and fecal samples, 100 mg of each sample was precisely weighed and added to a 5 mL Eppendorf tube, then mixed with 1 mL normal saline. The tissue cells were destructed by homogenization to mix with normal saline sufficiently, and the homogenization was achieved after centrifugation for 10 min at 4000 rpm. The methods to precipitate the protein of tissue and feces homogenization were the same as those of the plasma samples.
Eighteen male Wistar rats were separated into three groups with six rats in every group based on different oral medicines, containing a β-CD-DM group (inclusion compounds of DM with β-CD), DM group (single DM), and β-CD group (single β-CD). Each rat was administered to orally, and the dosage of every group was computed by the equal transformation of human and rat surface area of the body by the clinical dosage; therefore, 6 mg/kg of the β-CD-DM group (DM:β-CD(6 mg/kg:393 mg/kg) mixed evenly), 6 mg/kg of the DM group, and 393 mg/kg of the β-CD group were obtained. Blood samples (250 μL) were obtained from the orbital venous plexus at 0, 0.083, 0.25, 0.5, 0.75, 1, 1.5, 2, 4, 6, 8, 12, 24, 36 h after oral delivery. Then, the blood was centrifuged for 10 min at 4000 rpm to obtain the separation of plasma, and the plasma was stored in at −80 ℃ before application. The plasma samples of the rats in each group were treated according to the contents of Section 2.4.1, and then analyzed according to Section 2.2.1. The plasma concentrations of β-CD, DM, ginsenoside Re (IS 1), and psoralen (IS 2) were calculated by the ratio of peak area between analytes and internal standards. The pharmacokinetic parameters of the three groups of analytes were handled by adopting pharmacokinetic software DAS 2.1 found on non-compartment analysis. Then, the obtained main pharmacokinetic parameters of every group were used for independent sample T-test with SPSS v24.0; p < 0.05 was considered as a difference, and p < 0.01 was considered as a significant difference.

[2] = cited from earlier work
[3] = Tissue distribution study of β-CD in rats; format: in vivo, Wistar rats
Protocol: as §1, with “The methods to precipitate the protein of tissue and feces homogenization were the same as those of the plasma samples.” left out
Eighteen male Wistar rats were separated into three groups with six rats in every group based on different times after administration, containing group A (30 min after oral administration), group B (1h after oral administration), and group C (4 h after oral administration). […] The tissue homogenization samples of the rats in each group were treated according to the contents of Section 2.4.1, and then analyzed according to Section 2.2.1.

[4] = analyte DM in rat plasma, DM group (single DM), 6 mg/kg oral
[5] = analyte DM in rat plasma, β-CD-DM group (inclusion compounds, DM:β-CD 6 mg/kg:393 mg/kg) oral
[6] = analyte β-CD in rat plasma, β-CD group (single β-CD), 393 mg/kg oral
[7] = analyte β-CD in rat plasma, β-CD-DM group (inclusion compounds, DM:β-CD 6 mg/kg:393 mg/kg) oral

For COc1ccc2c(c1)[C@]13CCCC[C@@H]1[C@H](C2)N(C)CC3 [DM, Dextromethorphan hydrobromide, reference compound], the CLZ [1, 4] was 6.55 × 10^1 ± 8.60 L/h/Kg, the Cmax [1, 4] was 2.91 × 10^1 ± 3.17 ng/mL/h and the VZ [1, 4] was 1640 ± 996 L/kg. The CLZ [1, 5] was 44.1 ± 12.5 L/h/kg, the Cmax [1, 5] was 3.27 × 10^1 ± 4.67 ng/mL/h and the VZ [1, 5] was 1900 ± 643 L/kg. For the same compound, the half-life ([1]; male, Wistar, rat, in vivo, 6 mg/kg, analyte DM in rat plasma, DM group (single DM), 6 mg/kg oral) was 16.8 h, the half-life ([1]; male, Wistar, rat, in vivo, 6 mg/kg, analyte DM in rat plasma, β-CD-DM group (inclusion compounds, DM:β-CD 6 mg/kg:393 mg/kg) oral) was 30.4 h and the water solubility [2] was “poorly water-soluble”.

With OC[C@H]1O[C@@H]2O[C@H]3[C@H](O)[C@@H](O)[C@@H](O[C@H]4[C@H](O)[C@@H](O)[C@@H](O[C@H]5[C@H](O)[C@@H](O)[C@@H](O[C@H]6[C@H](O)[C@@H](O)[C@@H](O[C@H]7[C@H](O)[C@@H](O)[C@@H](O[C@H]8[C@H](O)[C@@H](O)[C@@H](O[C@H]1[C@H](O)[C@H]2O)O[C@@H]8CO)O[C@@H]7CO)O[C@@H]6CO)O[C@@H]5CO)O[C@@H]4CO)O[C@@H]3CO [β-CD, β-cyclodextrin] the CLZ [1, 6] was 32.7 ± 10.2 L/h/kg, the VZ [1, 6] was 400 ± 176 L/kg and the CLZ [1, 7] was 3.03 × 10^1 ± 6.18 L/h/Kg. It also gave a VZ [1, 7] of 354 ± 71.6 L/kg, a half-life ([1]; male, Wistar, rat, plasma, 393 mg/kg, analyte β-CD in rat plasma, β-CD group (single β-CD), 393 mg/kg oral) of 8.33 ± 2.46 h and a half-life ([1]; male, Wistar, rat, plasma, 393 mg/kg, analyte β-CD in rat plasma, β-CD-DM group (inclusion compounds, DM:β-CD 6 mg/kg:393 mg/kg) oral) of 8.21 ± 1.47 h. The concentration at 30 min ([1]; male, Wistar, rat, plasma, 30 min after oral administration, 393 mg/kg, read-out: concentration of β-CD in rat plasma) was roughly 3500 ng/mL, the concentration at 1 h ([1]; male, Wistar, rat, plasma, 1 h after oral administration, 393 mg/kg, tissue concentration similar, read-out: concentration of β-CD in rat plasma) was roughly 3000 ng/mL and the “AUC0–t as share of AUC0–∞” value ([1]; β-CD in rat plasma, oral, sampling to 36 h) was “more than 96%”. The “time until almost wholly removed from rat plasma” value ([1]; β-CD, oral administration) was no more than 36 h, the “time at which concentration in entire tissues reached its peak” value ([3]; 393 mg/kg single oral, heart, liver, spleen, lung, kidney, sampled 30 min, 1 h, 4 h) was 1 h and the accumulation in tissues ([3]; 4 h after 393 mg/kg single oral, tissue concentration decreased significantly) was “without noticeable accumulation”.
